For one data set, the target named is T1, GCGR (Mus musculus, UniProt Q61606).
T1 construct: from tissue; host or cells: liver of wild-type mice, dosed in vivo
The data set can be described thus: in vivo GCGR receptor occupancy competition assay with 125I-glucagon in wild-type mice.

Data set [1] deals with T2, hGLP-1R (Homo sapiens, UniProt P43220). Put plainly: cell-based cAMP assay as described in WO2008101017 (Table 11), hGLP-1R. The source says: (§1) This example presents tables showing the in vitro potencies of various peptide analogs at the human GLP-1 receptor (hGLP-1R) and the human glucagon receptor (hGCGR).
T2 sequence (P43220 24-463): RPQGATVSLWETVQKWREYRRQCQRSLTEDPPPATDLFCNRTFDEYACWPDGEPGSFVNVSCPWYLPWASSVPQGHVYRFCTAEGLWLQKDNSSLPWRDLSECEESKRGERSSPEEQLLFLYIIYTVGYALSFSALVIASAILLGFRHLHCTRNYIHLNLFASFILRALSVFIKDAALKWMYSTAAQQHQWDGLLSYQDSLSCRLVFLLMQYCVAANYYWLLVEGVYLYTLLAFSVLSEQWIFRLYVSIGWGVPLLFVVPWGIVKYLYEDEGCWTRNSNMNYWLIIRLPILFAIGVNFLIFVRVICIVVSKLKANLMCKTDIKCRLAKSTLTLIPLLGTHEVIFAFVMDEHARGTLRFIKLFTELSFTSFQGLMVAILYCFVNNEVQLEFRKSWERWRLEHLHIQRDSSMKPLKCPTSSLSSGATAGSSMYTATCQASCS
In general terms: Changes in cAMP serve as a functional read-out for many G protein-coupled receptors.

Data set [2] deals with T3, hGCGR (Homo sapiens, UniProt P47871). Put plainly: cell-based cAMP assay as described in WO2008101017 (Table 11), hGCGR.
T3 sequence (P47871 26-477): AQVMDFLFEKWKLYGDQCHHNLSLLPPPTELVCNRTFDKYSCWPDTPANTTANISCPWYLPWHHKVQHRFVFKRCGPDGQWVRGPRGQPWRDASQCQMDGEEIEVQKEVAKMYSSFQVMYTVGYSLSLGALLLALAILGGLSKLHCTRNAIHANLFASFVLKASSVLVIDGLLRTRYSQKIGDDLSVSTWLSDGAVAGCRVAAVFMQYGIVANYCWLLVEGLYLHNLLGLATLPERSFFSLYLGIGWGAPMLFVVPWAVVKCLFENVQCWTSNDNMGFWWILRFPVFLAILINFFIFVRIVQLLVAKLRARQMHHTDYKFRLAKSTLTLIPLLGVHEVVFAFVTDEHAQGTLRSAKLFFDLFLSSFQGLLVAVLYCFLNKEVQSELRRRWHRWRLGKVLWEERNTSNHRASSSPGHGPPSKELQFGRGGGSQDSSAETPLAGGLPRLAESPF
From the text: as §1

Data set [3] addresses T3, hGCGR. The data set can be described thus: fluorescence cell based cAMP assay, CHO cells stably expressing GCGR. The following applies: GCGR EC50, Table 4. The method, then: (§2) We initially screened peptides in fluorescence cell based assays that measure production of cyclic-AMP (cAMP), using CHO cell lines stably expressing either recombinant human GLP-1R or human GCGR. Determination of Mouse and human GLP-1R and GCGR Agonist Activity was essentially as follows. CHO cells stably expressing mouse or human GLP-1R or GCGR were grown in Iscove's Modified Dulbecco's Medium (IMDM), 10% FBS, 1 mM L-glutamine, penicillin-streptomycin (100 μ/mL) and 750 μg G418/mL for three-four days before harvesting using Enzymefree Dissociation Media (EFDM, Specialty Media). […] The assay was terminated with the addition of the LANCE kit Detection buffer as per the manufacturer's instructions. The plates were held an additional hour at room temperature, then increasing cAMP levels were detected by a decrease in TR-FRET signal as measured in an EnVision counter (PerkinElmer) in comparison to a standard curve of cAMP as per the manufacturer's instructions. Data were analyzed using the linear and nonlinear regression analysis software, GraphPad Prism.
(§3) The in vitro potencies shown in Table 10 or Table 11 were determined from the results of assays that were similar to either the cell-based cAMP assays described herein above (Table 10) or the cell-based cAMP assays described in International Published Application No. WO2008101017, which is incorporated herein in its entirety, in particular the cell-based cAMP assays described therein (Table 11).

The nature of data set [4]: 14 day chronic infusion food intake and body weight study in DIO mice. The format is in vivo, mouse. The following applies: for Cumulative food intake change / Cumulative weight change: 14 day chronic infusion.
From the text: Lean or diet-induced obese 10-12-week-old male C57BL/6 mice were purchased from Taconic Farms (Germantown, N.Y.) and housed in individual Tecniplast cages in a conventional SPF facility.
The nature of data set [5]: hyperglycemic clamp in DIO mice. Type of data set: in vivo, mouse. The conditions noted are these: ~16 μg/kg/min i.v., last 60 minutes.
Protocol: DIO mice (16 wk on high fat diet) were anesthetized with xylazine and ketamine and catheterized through the right internal jugular vein 3 days before the in vivo studies. […] The venous catheter was used for infusion, and blood samples were collected from the tail vein. Each animal was monitored for food intake and weight gain after surgery to ensure complete recovery. […] Briefly, plasma glucose was measured by OneTouch glucometer every 10 minutes during the 2 hour period. Twenty-five percent glucose (D-glucose, Sigma) was infused i.v. and the rate was adjusted periodically to clamp the plasma glucose levels (˜20 mM). […] Glucose infusion rate (GIR) was adjusted to body weight.
A short description of data set [6]: intraperitoneal glucose tolerance test (IPGTT) in lean C57BL/6N mice. Type of data set: in vivo, mouse.
Protocol: Intraperitoneal glucose tolerance test. Male C57BL/6N mice were distributed by weight into treatment groups (n=6/group). […] 10 min prior the glucose challenge. Blood glucose concentrations were determined at T=−10 min and T=0 min (baseline). Mice were then immediately challenged, intraperitoneally, with D-glucose (2 g/kg). One group of vehicle-treated mice was challenged with 0.9% saline as a
negative control. Blood glucose levels were determined from tail bleeds taken at 20, 40 and 60 min after D-glucose challenge. […] Percent inhibition values for each treatment were generated from the AUC data normalized to the saline-challenged controls. Areas under the curve (AUC) for glucose (AUC glucose) was calculated using the trapezoidal method. […] Statistical analysis was done using unpaired 2-tailed Student's t test. P values<0.05 were reported as significant.
In data set [7] the target is T3, hGCGR. Put plainly: ex vivo perfused liver glycogenolysis assay (13C NMR), humanized GCGR mice. The following applies: at 300 nM.
Protocol: Humanized GCGR mice (C57B/6N) were anesthetized (Nembutal IP, 50 mg/kg) in the middle of the dark cycle. The portal vein was then cannulated and the liver was excised and perfused with a preoxygenated Krebs-Henseleit bicarbonate buffered solution for 5-10 minutes which initially was not recirculated to wash out any endogenous substrates. […] A ^13C NMR-visible pool of glycogen was then created by the addition of the gluconeogenic substrate [2-^13C] Pyruvate and ammonium chloride (˜7 mM and 1 mM, respectively) to the perfusate, and the amount of ^13C glycogen contained in the liver was monitored in real time via the Cl resonance of the glucosyl units in glycogen.
Mice expressing human GCGR were anesthetized (Nembutal IP, 50 mg/kg) at approximately the middle of the dark cycle. The portal vein was then cannulated and tied off and the liver was excised. The liver was then placed into a 20 mm NMR tube and the initial Krebs solution was exchanged for a Krebs-BSA perfusate, which was recirculated. ^31P NMR spectroscopy was performed initially to examine the ATP and inorganic phosphate (Pi) levels in the liver which can be used to assess hepatic viability. […] Pyruvate+NH4Cl and the amount of glycogen contained in the liver was monitored in real time via the Cl resonance of the glucosyl units in glycogen.
A short description of data set [8]: pI of the peptide analogs.
Data set [9] addresses T2, hGLP-1R. Put plainly: fluorescence cell based cAMP assay, CHO cells stably expressing GLP-1R. The following applies: hGLP-1R EC50, Table 10. More on the design: expressed in transfected cells. As for the experimental part:
as §2, with “The” for “The assay was terminated with the addition of the LANCE kit Detection buffer as per the manufacturer's instructions. The”
as §3

Where two headings read alike, the source gives them in different places. *1 amine or outer side, *2 acyl side, *3 side chain or, on linkers, in order; H or OH if unused. Where a SMILES comes first, the peptide text is derived from it. Bridges are numbered along the chain shown (N, C = ends). Where no end group is shown, it is not given here. Side-chain parts run from the residue outwards. [ ]: non-standard residue; d: D form. The star is where a group is joined. X2 = CC(C)CCC[C@@H](C)[C@H]1CC[C@H]2[C@@H]3CC=C4C[C@@H](OC(=O)CCOCCOCCOCCOCCOCCOCCOCCOCCOCCOCCOCCOCCNC(=O)C*)CC[C@]4(C)[C@H]3CC[C@]12C; γGlu = O=C(O)[C@H](CCC(=O)[*:2])N[*:1]; Palmitoyl = CCCCCCCCCCCCCCCC(=O)*; Aib = CC(C)(N)C(=O)O

What is called EC50 is the concentration needed to bring the measured effect to its halfway point.

T1 sequence (Q61606 27-485): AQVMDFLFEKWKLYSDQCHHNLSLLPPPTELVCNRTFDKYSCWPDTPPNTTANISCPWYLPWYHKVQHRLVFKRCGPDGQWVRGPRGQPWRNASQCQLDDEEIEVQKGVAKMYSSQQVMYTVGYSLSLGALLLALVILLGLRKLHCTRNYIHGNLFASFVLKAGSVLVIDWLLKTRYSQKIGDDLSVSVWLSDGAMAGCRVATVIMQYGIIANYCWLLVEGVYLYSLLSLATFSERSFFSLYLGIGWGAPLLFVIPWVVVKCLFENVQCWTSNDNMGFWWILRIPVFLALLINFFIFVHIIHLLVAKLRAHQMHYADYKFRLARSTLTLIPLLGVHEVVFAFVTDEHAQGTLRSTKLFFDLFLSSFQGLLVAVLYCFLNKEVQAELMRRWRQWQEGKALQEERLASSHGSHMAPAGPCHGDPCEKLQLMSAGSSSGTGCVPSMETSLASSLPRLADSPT

In turn, glucagon [reference compound] displayed a GCGR occupancy in the data set with GCGR (1.5 mpk) of 84%.

With `CCCCCCCCCCCCCCCC(=O)N[C@@H](CCC(=O)N[C@@H](CCC(=O)NCCCC[C@H](NC(=O)[C@H](CC(=O)O)NC(=O)[C@H](CO)NC(=O)[C@@H](NC(=O)[C@H](Cc1ccccc1)NC(=O)[C@@H](NC(=O)CNC(=O)[C@H](CCC(N)=O)NC(=O)[C@@H](CO)NC(=O)[C@@H](N)Cc1c[nH]cn1)[C@@H](C)O)[C@@H](C)O)C(=O)N[C@@H](CO)C(=O)N[C@@H](CCCCN)C(=O)N[C@@H](Cc1ccc(O)cc1)C(=O)N[C@@H](CC(C)C)C(=O)N[C@@H](CC(=O)O)C(=O)NC(C)(C)C(=O)N[C@@H](CCCNC(=N)N)C(=O)N[C@@H](CCCNC(=N)N)C(=O)N[C@@H](C)C(=O)N[C@@H](CCC(N)=O)C(=O)N[C@@H](CC(=O)O)C(=O)N[C@@H](Cc1ccccc1)C(=O)N[C@H](C(=O)N[C@@H](CCC(N)=O)C(=O)N[C@@H](Cc1c[nH]c2ccccc12)C(=O)N[C@@H](CC(C)C)C(=O)N[C@@H](CCSC)C(=O)N[C@@H](CC(N)=O)C(=O)N[C@H](C(=O)N[C@H](CCCCN)C(=O)N[C@@H](CCC(N)=O)C(=O)O)[C@@H](C)O)C(C)C)C(=O)O)C(=O)O` [MM103], the EC50 on hGLP-1R [1] stood at 0.026 nM; at hGCGR [2], 5 pM.

At hGCGR [3], “HSEGTFTSDYSKYLDSRRAQDFVQWLMNTKRNRNNIA [OXM-Q3E]” came in with a concentration for a half-maximal effect (EC50) of 1630 nM. This compound also gave a GCGR occupancy at GCGR (subcutaneous, dose not given) of 0%. Besides, in data set [4] (5 mg/kg), the ΔBW is −2.4%, the “Cumulative food intake change” value is on record as 207 kcal and the Cumulative weight change is -0.21 g. Moreover, in [4] (0.5 mg/kg), the “Cumulative food intake change” value is given as 215 kcal and the Cumulative weight change is -0.21 g. Also, in data set [5], the “GIR0-60 (glucose infusion rate)” value is 55 ± 4 mg/kg/min. The “effectiveness at reducing glucose relative to native peptide” value in data set [6] (comparison of the minimal effective dose, IPGTT) is “about 10 fold”. Moreover, in data set [6] (lean C57BL/6N mice, s.c.), the “blood glucose excursion in IPGTT” value is reported as “significantly reduced blood glucose excursion in a dose-dependent manner”. The glycogenolysis induced entry at hGCGR [7] is “about 58%”.

As for `CSCC[C@H](NC(=O)[C@H](CC(C)C)NC(=O)[C@H](Cc1c[nH]c2ccccc12)NC(=O)[C@H](CCC(N)=O)NC(=O)[C@@H](NC(=O)[C@H](Cc1ccccc1)NC(=O)[C@H](CC(=O)O)NC(=O)[C@@H]1CCCCNC(=O)CC[C@H](NC(=O)[C@H](CC(=O)O)NC(=O)[C@H](CC(C)C)NC(=O)[C@H](Cc2ccc(O)cc2)NC(=O)[C@H](CCCCN)NC(=O)[C@H](CO)NC(=O)[C@H](Cc2ccc(O)cc2)NC(=O)[C@H](CC(=O)O)NC(=O)[C@H](CO)NC(=O)[C@@H](NC(=O)[C@H](Cc2ccccc2)NC(=O)[C@@H](NC(=O)CNC(=O)[C@H](CCC(N)=O)NC(=O)C(C)(C)NC(=O)[C@@H](N)Cc2c[nH]cn2)[C@@H](C)O)[C@@H](C)O)C(=O)N[C@@H](CCCNC(=N)N)C(=O)N[C@@H](CCCNC(=N)N)C(=O)N[C@@H](C)C(=O)N1)C(C)C)C(=O)N[C@@H](CC(N)=O)C(=O)N[C@H](C(=O)N[C@@H](CCCCN)C(=O)N[C@@H](CCC(=O)N[C@@H](CCC(=O)N[C@@H](CSCC(=O)NCCOCCOCCOCCOCCOCCOCCOCCOCCOCCOCCOCCOCCC(=O)O[C@H]1CC[C@@]2(C)C(=CC[C@H]3[C@@H]4CC[C@H]([C@H](C)CCCC(C)C)[C@@]4(C)CC[C@@H]32)C1)C(=O)O)C(=O)O)C(=O)O)[C@@H](C)O` [OXM395] (H-H[Aib]QGTFTSDYSKYLDERRAKDFVQWLMNTK[γGlu][γGlu]C(X2)-OH; lactam 16-20; N-terminus assumed), the pI entry is reported as “about 5.4” in [8] and 5.4 in data set [8] (Table 10). Further, on hGLP-1R [9], the EC50 came out at 0.7 nM.

With `CCCCCCCCCCCCCCCC(=O)N[C@@H](CCC(=O)N[C@@H](CCC(=O)NCCCC[C@H](NC(=O)[C@H](CC(=O)O)NC(=O)[C@H](CO)NC(=O)[C@@H](NC(=O)[C@H](Cc1ccccc1)NC(=O)[C@@H](NC(=O)CNC(=O)[C@H](CCC(N)=O)NC(=O)[C@@H](CO)NC(=O)[C@@H](N)Cc1c[nH]cn1)[C@@H](C)O)[C@@H](C)O)C(=O)N[C@@H](CO)C(=O)N[C@@H](CCCCN)C(=O)N[C@@H](Cc1ccc(O)cc1)C(=O)N[C@@H](CC(C)C)C(=O)N[C@@H](CC(=O)O)C(=O)N[C@@H](CCC(=O)O)C(=O)N[C@@H](CCCNC(=N)N)C(=O)N[C@@H](CCCNC(=N)N)C(=O)N[C@@H](C)C(=O)N[C@@H](CCC(N)=O)C(=O)N[C@@H](CC(=O)O)C(=O)N[C@@H](Cc1ccccc1)C(=O)N[C@H](C(=O)N[C@@H](CCC(N)=O)C(=O)N[C@@H](Cc1c[nH]c2ccccc12)C(=O)N[C@@H](CC(C)C)C(=O)N[C@@H](CCSC)C(=O)N[C@@H](CC(N)=O)C(=O)N[C@H](C(=O)N[C@@H](CCCCN)C(=O)N[C@@H](CCC(N)=O)C(=O)O)[C@@H](C)O)C(C)C)C(=O)O)C(=O)O` [MM111] (H-H[dS]QGTFTSDK([γGlu-γGlu-Palmitoyl])SKYLDERRAQDFVQWLMNTKQ-OH), the values for the 50% effective concentration (EC50) at hGLP-1R [1] and on hGCGR [2] were 0.007 nM and 5 pM, respectively.
